Source: ChEMBL document CHEMBL3792297, “Studies on phenothiazines: New microtubule-interacting compounds with phenothiazine A-ring as potent antineoplastic agents” (Bioorg Med Chem, 2016)

Assays:
[1] = Growth inhibition of human SF295 cells at 10 uM after 48 hrs by SRB assay relative to control; type: functional; conditions: SF-295, 48 h, read-out: GI
[2] = Growth inhibition of human LOXIMVI cells at 10 uM after 48 hrs by SRB assay relative to control; type: functional; conditions: LOX IMVI, read-out: GI
A549 = assay: Growth inhibition of human A549 cells at 10 uM after 48 hrs by SRB assay relative to control; type: functional; conditions: A549, 48 h, read-out: GI
NCI-H23 = assay: Growth inhibition of human NCI-H23 cells at 10 uM after 48 hrs by SRB assay relative to control; type: functional; conditions: NCI-H23, 48 h, read-out: GI
SK-MEL-28 = assay: Growth inhibition of human SK-MEL-28 cells at 10 uM after 48 hrs by SRB assay relative to control; type: functional; conditions: SK-MEL-28, 48 h, read-out: GI
[3] = Growth inhibition of human HCT15 cells at 10 uM after 48 hrs by SRB assay relative to control; type: functional; conditions: HCT-15, 48 h, read-out: GI
[4] = Growth inhibition of human UACC62 cells at 10 uM after 48 hrs by SRB assay relative to control; type: functional; conditions: UACC-62, 48 h, read-out: GI
[5] = Growth inhibition of human TK10 cells at 10 uM after 48 hrs by SRB assay relative to control; type: functional; conditions: TK-10, 48 h, read-out: GI
Ovis aries = species on record: Ovis aries; assay: Inhibition of sheep brain tubulin polymerization at 100 uM by DAPI staining-based fluorimetric method
[6] = Growth inhibition of human SNB19 cells at 10 uM after 48 hrs by SRB assay relative to control; type: functional; conditions: SNB-19, 48 h, read-out: GI
[7] = Growth inhibition of human UACC257 cells at 10 uM after 48 hrs by SRB assay relative to control; type: functional; conditions: UACC-257, 48 h, read-out: GI
MDA-MB-231 = assay: Growth inhibition of human MDA-MB-231 cells at 10 uM after 48 hrs by SRB assay relative to control; type: functional; conditions: MDA-MB-231, 48 h, read-out: GI
NCI-H226 = assay: Growth inhibition of human NCI-H226 cells at 10 uM after 48 hrs by SRB assay relative to control; type: functional; conditions: NCI-H226, 48 h, read-out: GI
MDA-MB-468 = assay: Growth inhibition of human MDA-MB-468 cells at 10 uM after 48 hrs by SRB assay relative to control; type: functional; conditions: MDA-MB-468, 48 h, read-out: GI
[8] = Growth inhibition of human SKOV3 cells at 10 uM after 48 hrs by SRB assay relative to control; type: functional; conditions: SK-OV-3, 48 h, read-out: GI
[9] = Growth inhibition of human PC3 cells at 10 uM after 48 hrs by SRB assay relative to control; type: functional; conditions: PC-3, 48 h, read-out: GI
[10] = Growth inhibition of human HL-60(TB) cells at 10 uM after 48 hrs by SRB assay relative to control; type: functional; conditions: HL-60, 48 h, read-out: GI
[11] = Growth inhibition of human Hs 578T cells at 10 uM after 48 hrs by SRB assay relative to control; type: functional; conditions: read-out: GI
[12] = Growth inhibition of human NCI-ADR-RES cells at 10 uM after 48 hrs by SRB assay relative to control; type: functional; conditions: read-out: GI
[13] = Growth inhibition of human SF268 cells at 10 uM after 48 hrs by SRB assay relative to control; type: functional; conditions: SF-268, 48 h, read-out: GI
EKVX = assay: Growth inhibition of human EKVX cells at 10 uM after 48 hrs by SRB assay relative to control; type: functional; conditions: read-out: GI
[14] = Growth inhibition of human OVCAR8 cells at 10 uM after 48 hrs by SRB assay relative to control; type: functional; conditions: OVCAR-8, 48 h, read-out: GI
[15] = Growth inhibition of human UO31 cells at 10 uM after 48 hrs by SRB assay relative to control; type: functional; conditions: UO-31, 48 h, read-out: GI
[16] = Growth inhibition of human COLO205 cells at 10 uM after 48 hrs by SRB assay relative to control; type: functional; conditions: COLO 205, 48 h, read-out: GI
[17] = Growth inhibition of human HOP62 cells at 10 uM after 48 hrs by SRB assay relative to control; type: functional; conditions: HOP-62, 48 h, read-out: GI
KM12 = assay: Growth inhibition of human KM12 cells at 10 uM after 48 hrs by SRB assay relative to control; type: functional; conditions: KM12, 48 h, read-out: GI
CCRF-CEM = assay: Growth inhibition of human CCRF-CEM cells at 10 uM after 48 hrs by SRB assay relative to control; type: functional; conditions: read-out: GI
[18] = Growth inhibition of human HCC2998 cells at 10 uM after 48 hrs by SRB assay relative to control; type: functional; conditions: HCC 2998, 48 h, read-out: GI
[19] = Growth inhibition of human MOLT4 cells at 10 uM after 48 hrs by SRB assay relative to control; type: functional; conditions: MOLT-4, 48 h, read-out: GI
[20] = Growth inhibition of human IGROV1 cells at 10 uM after 48 hrs by SRB assay relative to control; type: functional; conditions: IGROV-1, 48 h, read-out: GI
[21] = Growth inhibition of human RPMI8226 cells at 10 uM after 48 hrs by SRB assay relative to control; type: functional; conditions: RPMI-8226, 48 h, read-out: GI
M14 = assay: Growth inhibition of human M14 cells at 10 uM after 48 hrs by SRB assay relative to control; type: functional; conditions: M14, 48 h, read-out: GI
MCF7 = assay: Growth inhibition of human MCF7 cells at 10 uM after 48 hrs by SRB assay relative to control; type: functional; conditions: MCF7, 48 h, read-out: GI
[22] = Growth inhibition of human SW620 cells at 10 uM after 48 hrs by SRB assay relative to control; type: functional; conditions: SW-620, 48 h, read-out: GI
[23] = Growth inhibition of human HCT116 cells at 10 uM after 48 hrs by SRB assay relative to control; type: functional; conditions: HCT-116, 48 h, read-out: GI
SN12C = assay: Growth inhibition of human SN12C cells at 10 uM after 48 hrs by SRB assay relative to control; type: functional; conditions: read-out: GI
NCI-H322M = assay: Growth inhibition of human NCI-H322M cells at 10 uM after 48 hrs by SRB assay relative to control; type: functional; conditions: read-out: GI
U-251 = assay: Growth inhibition of human U251 cells at 10 uM after 48 hrs by SRB assay relative to control; type: functional; conditions: U-251, 48 h, read-out: GI
SK-MEL-2 = assay: Growth inhibition of human SK-MEL-2 cells at 10 uM after 48 hrs by SRB assay relative to control; type: functional; conditions: SK-MEL-2, 48 h, read-out: GI

Row | SMILES | inhibition of growth at 10 µM [1] | inhibition of growth at 10 µM [2] | inhibition of growth at 10 µM (A549) | inhibition of growth at 10 µM (NCI-H23) | inhibition of growth at 10 µM (SK-MEL-28) | inhibition of growth at 10 µM [3] | inhibition of growth at 10 µM [4] | inhibition of growth at 10 µM [5] | inhibition (Ovis aries) | inhibition of growth at 10 µM [6] | inhibition of growth at 10 µM [7] | inhibition of growth at 10 µM (MDA-MB-231) | inhibition of growth at 10 µM (NCI-H226) | inhibition of growth at 10 µM (MDA-MB-468) | inhibition of growth at 10 µM [8] | inhibition of growth at 10 µM [9] | inhibition of growth at 10 µM [10] | inhibition of growth at 10 µM [11] | inhibition of growth at 10 µM [12] | inhibition of growth at 10 µM [13] | also measured
1 | COc1ccc(C(=O)N2c3ccccc3Sc3ccccc32)c(F)c1 | 91% | 60% | 73% | 68% | 41% | 73% | 77% | 55% | 75% | 64% | 33% | 47% | 54% | 100% | 62% | 70% | 85% | 84% | 98% | 47% | inhibition of growth at 10 µM (EKVX): 56%; inhibition of growth at 10 µM [14]: 68%; inhibition of growth at 10 µM [15]: 51%; inhibition of growth at 10 µM [16]: 92%; inhibition of growth at 10 µM [17]: 63%; inhibition of growth at 10 µM (KM12): 77%; inhibition of growth at 10 µM (CCRF-CEM): 83%; inhibition of growth at 10 µM [18]: 70%; inhibition of growth at 10 µM [19]: 73%; inhibition of growth at 10 µM [20]: 45%; inhibition of growth at 10 µM [21]: 81%; inhibition of growth at 10 µM (M14): 98%; inhibition of growth at 10 µM (MCF7): 76%; inhibition of growth at 10 µM [22]: 85%; inhibition of growth at 10 µM [23]: 80%; inhibition of growth at 10 µM (SN12C): 39%; inhibition of growth at 10 µM (NCI-H322M): 56%; inhibition of growth at 10 µM (U-251): 66%
2 | COc1ccc(C(=O)N2c3ccccc3Sc3ccccc32)cc1F | 89% | 64% | 83% | 86% | 57% | 76% | 62% | 49% | 99% | 45% | 50% | 69% | 30% | 100% | 87% | 71% | 89% | 100% | 100% | 58% | inhibition of growth at 10 µM (SK-MEL-2): 100%; inhibition of growth at 10 µM (EKVX): 59%; inhibition of growth at 10 µM [14]: 97%; inhibition of growth at 10 µM [15]: 50%; inhibition of growth at 10 µM [16]: 100%; inhibition of growth at 10 µM [17]: 50%; inhibition of growth at 10 µM (KM12): 81%; inhibition of growth at 10 µM (CCRF-CEM): 88%; inhibition of growth at 10 µM [18]: 82%; inhibition of growth at 10 µM [19]: 67%; inhibition of growth at 10 µM [20]: 70%; inhibition of growth at 10 µM [21]: 44%; inhibition of growth at 10 µM (M14): 92%; inhibition of growth at 10 µM (MCF7): 82%; inhibition of growth at 10 µM [22]: 80%; inhibition of growth at 10 µM [23]: 85%; inhibition of growth at 10 µM (SN12C): 66%; inhibition of growth at 10 µM (U-251): 90%
3 | O=C(c1ccc2c(c1)Sc1ccccc1N2)c1c[nH]c2ccccc12 | 96% | 85% | 77% | 68% | 54% | 68% | 46% | 63% | 66% | 41% | 43% | 54% | 18% | 100% | 85% | 74% | 85% | 100% | 100% | 45% | inhibition of growth at 10 µM (SK-MEL-2): 94%; inhibition of growth at 10 µM (EKVX): 47%; inhibition of growth at 10 µM [14]: 77%; inhibition of growth at 10 µM [15]: 58%; inhibition of growth at 10 µM [16]: 100%; inhibition of growth at 10 µM [17]: 61%; inhibition of growth at 10 µM (KM12): 87%; inhibition of growth at 10 µM (CCRF-CEM): 81%; inhibition of growth at 10 µM [18]: 64%; inhibition of growth at 10 µM [19]: 73%; inhibition of growth at 10 µM [20]: 71%; inhibition of growth at 10 µM [21]: 56%; inhibition of growth at 10 µM (M14): 86%; inhibition of growth at 10 µM (MCF7): 80%; inhibition of growth at 10 µM [22]: 71%; inhibition of growth at 10 µM [23]: 82%; inhibition of growth at 10 µM (SN12C): 57%; inhibition of growth at 10 µM (U-251): 83%
